Data taken from patent US4935529A, “Cytoxic substances from the marine cyanophyte hormothamnion enteromorphoides grunow” (State of Oregon acting by and through the Oregon State …, priority 1989, dated 1990).
Values after ≈ are worked out from the molar mass of the structure shown. “Also recorded” adds a separate entry of the source.

Assays:
Solubility properties = format: physicochemical; details: relative to the natural product; in words
several human cell lines = test: Cytotoxicity / growth inhibition of several human cell lines; format: cell-based; details: in words
gram positive = test: Gram positive antimicrobial activity; format: cell-based; details: in words
DNA synthesis, KB = test: Inhibition of DNA biosynthesis in KB (3H-thymidine incorporation); format: cell-based; details: Homo sapiens, 3H-thymidine pulse label, read-out: ID50 DNA
Description: (§1) ^b The percentages of macromolecule biosynthesis inhibition were
(§2) calculated from the specific activities of incorporated precursors (c-e)
(§3) into 10^6 cells in drug treated as versus control cells. ID50
(§4) values were obtained by plotting the logarithmic drug concentrations
(§5) against the percentage inhibition of macromolecule biosynthesis.
(§6) ^c Exponentially growing cells pulse labeled with 1 μCi of ^3
(§7) Hthymidine (16.6 Ci/mmole) per ml of cell suspension.
(§8) Macromolecule biosynthesis in the presence of hormothamnion was measured via radioactive precursor incorporation studies using HL-60 and KB cell lines.

RNA synthesis, KB = test: Inhibition of RNA biosynthesis in KB (5-3H-uridine incorporation); format: cell-based; details: Homo sapiens, 5-3H-uridine pulse label, read-out: ID50 RNA
Description: as §1, §2, §3, §4, §5
(§9) ^d Exponentially growing cells pulse labeled with 2 μCi [5^3
(§10) Huridine (28 Ci/mmole) per ml of cell suspension.
as §8

RNA synthesis, HL-60 = test: Inhibition of RNA biosynthesis in HL-60 (5-3H-uridine incorporation); format: cell-based; details: Homo sapiens, 5-3H-uridine pulse label, read-out: ID50 RNA
Description: as §1, §2, §3, §4, §5, §9, §10, §8

P-388 = test: Inhibition of cell growth, P-388; format: cell-based
Description: (§11) Inhibition of Cell Growth and Macromolecule Biosynthesis in -Several
(§12) Cancerous Human Cell Lines by Hormothamnione (1)
(§13) ^a ID50 is the drug concentration required to inhibit cell growt
(§14) to 50% of control levels.
as §8

HL-60 = test: Inhibition of cell growth, HL-60; format: cell-based, human
Description: as §11, §12, §13, §14, §8

RNA synthesis = test: Macromolecule biosynthesis: inhibition of RNA synthesis (mode of action); format: cell-based, human; details: in words
Description: as §1, §2, §3, §4, §5, §9, §10, §8

Bacillus subtilus = test: Paper disc-agar plate antimicrobial test; format: cell-based
Protein synthesis, KB = test: Inhibition of protein biosynthesis in KB (3H-L-leucine incorporation); format: cell-based; details: Homo sapiens, 3H-L-leucine pulse label, read-out: ID50 Protein
Description: as §1, §2, §3, §4, §5
(§15) ^e Exponentially growing cells pulse labeled with 1 μCi of ^3
(§16) HL-leucine (130 Ci/mmole) per ml of cell suspension.
as §8

DNA synthesis, HL-60 = test: Inhibition of DNA biosynthesis in HL-60 (3H-thymidine incorporation); format: cell-based; details: Homo sapiens, 3H-thymidine pulse label, read-out: ID50 DNA
Description: as §1, §2, §3, §4, §5, §6, §7, §8

Protein synthesis, HL-60 = test: Inhibition of protein biosynthesis in HL-60 (3H-L-leucine incorporation); format: cell-based; details: Homo sapiens, 3H-L-leucine pulse label, read-out: ID50 Protein
Description: as §1, §2, §3, §4, §5, §15, §16, §8

For `COc1c(OC)c(OC(C)=O)c2c(=O)c(C)c(/C=C/c3cc(OC(C)=O)cc(OC(C)=O)c3)oc2c1OC` [derivative (2)], the solubility properties (Solubility properties) was “more favorable”.
With `COc1cc(O)c2c(=O)c(C)c(/C=C/c3cc(O)cc(O)c3)oc2c1OC` [compound of formula (3)] the “inhibited the growth of several human cell lines” value (several human cell lines) was “inhibited the growth of several human cell lines” and the “effect on growth compared with hormothamnion” value (several human cell lines; relative to hormothamnion) was “less than observed with hormothamnion”.
In the case of `COc1c(OC)c(O)c2c(=O)c(C)c(/C=C/c3cc(O)cc(O)c3)oc2c1OC` [hormothamnion], the “gram positive antimicrobial activity” value (gram positive) is reported as “minimal”, the IC50 (DNA synthesis, KB) is reported as 0.53 µg/mL (≈ 1.32 µM) and the IC50 (RNA synthesis, KB) is reported as 0.14 µg/mL (≈ 0.35 µM). The IC50 (RNA synthesis, HL-60) was 1 ng/mL (≈ 0.0025 µM), the IC50 (P-388; P388, P-388, read-out: ID50 Cell Growth) was 4.6 ng/mL (≈ 0.0115 µM) and the “cytotoxic agent to P388 lymphocytic leukemia” value (P-388; in words) was “potent”. For the same molecule, the IC50 (HL-60; Homo sapiens, read-out: ID50 Cell Growth) was 0.1 ng/mL (≈ 0.00025 µM), the “cytotoxic agent to HL-60 human promyelocytic leukemia” value (HL-60; in words) was “potent” and the “inhibition of RNA synthesis (mode of cytotoxic action)” value (RNA synthesis) was “appears to operate via inhibition of RNA synthesis; also recorded: A major mode of cytotoxic action of hormothamnion appears to be by inhibition of RNA synthesis”. For the same molecule, the “inhibition of RNA synthesis (mode of cytotoxic action)” value (RNA synthesis; listed as Hormothamnion) was “selective inhibition of RNA synthesis”, the zone of inhibition at 25 µg/disc (Bacillus subtilus; 25 μg per 6 mm paper disc) was 8 mm and the zone of inhibition at 100 µg/disc (Bacillus subtilus; 100 μg per 6 mm paper disc) was 10 mm. For the same molecule, the IC50 (Protein synthesis, KB) was over 0.5 µg/mL, the IC50 (DNA synthesis, HL-60) was 0.3 µg/mL (≈ 0.749 µM) and the “cytotoxin to several human cancerous cell lines” value (several human cell lines) was “potent cytotoxin”. For the same molecule, the IC50 (Protein synthesis, HL-60) was over 0.5 µg/mL.
